ChEMBL document CHEMBL4699428, “Anticancer potential of some imidazole and fused imidazole derivatives: exploring the mechanism via epidermal growth factor receptor (EGFR) inhibition” (RSC Med Chem, 2020)
Calls of active or inactive are those of the source. The rule behind the calls is not given here.

Tests used:
MDA-MB-231 [1] = experiment: Antiproliferative activity against human MDA-MB-231 cells assessed as reduction in cell viability incubated for 48 hrs by MTT assay; format: functional, cell-based; conditions: MDA-MB-231, 48 h
T47D = experiment: Antiproliferative activity against human T47D cells assessed as reduction in cell viability incubated for 48 hrs by MTT assay; format: functional, cell-based
A549 = experiment: Antiproliferative activity against human A549 cells assessed as reduction in cell viability incubated for 48 hrs by MTT assay; format: functional, cell-based; conditions: A549, 48 h
[2] = Cytotoxicity against human peripheral blood mononuclear cells assessed as reduction in cell survival at 10 uM incubated for 48 hrs by MTT assay; format: cell-based; conditions: pbmc
HT-29 = experiment: Antiproliferative activity against human HT-29 cells assessed as reduction in cell viability incubated for 48 hrs by MTT assay; format: functional, cell-based; conditions: HT-29, 48 h
MCF7 = experiment: Antiproliferative activity against human MCF-7 cells assessed as reduction in cell viability incubated for 48 hrs by MTT assay; format: functional, cell-based; conditions: MCF7, 48 h
HBL-100 [3] = experiment: Cytotoxicity against human HBL-100 cells assessed as disruption of cell morphology at 10 uM; format: cell-based; conditions: hbl-100, 10 µM
[4] = molecular target: Epidermal growth factor receptor (Homo sapiens, UniProt P00533); experiment: Inhibition of EGFR (unknown origin) using Tyrosine 4 peptide and ATP as substrate incubated for 1 hr by Z'-lyte kinase assay based […] method
HBL-100 [5] = experiment: Cytotoxicity against human HBL-100 cells assessed as reduction in cell survival at 10 uM incubated for 48 hrs by MTT assay; format: cell-based; conditions: hbl-100, 48 h
MDA-MB-231 [6] = experiment: Induction of reactive oxygen species generation in human MDA-MB-231 cells assessed as increase in intracellular ROS level at sub-IC50 concentration incubated for 48 hrs by H2DCFDA staining based flow cytometry; format: functional, cell-based
MDA-MB-231 [7] = experiment: Induction of mitochondrial membrane potential depolarization in human MDA-MB-231 cells assessed as […] fluorescence to green fluorescence ratio at sub-IC50 concentration incubated for 48 hrs by JC1 staining based flow cytometry; format: functional, cell-based

Epidermal growth factor receptor, sequence (P00533 whole entry): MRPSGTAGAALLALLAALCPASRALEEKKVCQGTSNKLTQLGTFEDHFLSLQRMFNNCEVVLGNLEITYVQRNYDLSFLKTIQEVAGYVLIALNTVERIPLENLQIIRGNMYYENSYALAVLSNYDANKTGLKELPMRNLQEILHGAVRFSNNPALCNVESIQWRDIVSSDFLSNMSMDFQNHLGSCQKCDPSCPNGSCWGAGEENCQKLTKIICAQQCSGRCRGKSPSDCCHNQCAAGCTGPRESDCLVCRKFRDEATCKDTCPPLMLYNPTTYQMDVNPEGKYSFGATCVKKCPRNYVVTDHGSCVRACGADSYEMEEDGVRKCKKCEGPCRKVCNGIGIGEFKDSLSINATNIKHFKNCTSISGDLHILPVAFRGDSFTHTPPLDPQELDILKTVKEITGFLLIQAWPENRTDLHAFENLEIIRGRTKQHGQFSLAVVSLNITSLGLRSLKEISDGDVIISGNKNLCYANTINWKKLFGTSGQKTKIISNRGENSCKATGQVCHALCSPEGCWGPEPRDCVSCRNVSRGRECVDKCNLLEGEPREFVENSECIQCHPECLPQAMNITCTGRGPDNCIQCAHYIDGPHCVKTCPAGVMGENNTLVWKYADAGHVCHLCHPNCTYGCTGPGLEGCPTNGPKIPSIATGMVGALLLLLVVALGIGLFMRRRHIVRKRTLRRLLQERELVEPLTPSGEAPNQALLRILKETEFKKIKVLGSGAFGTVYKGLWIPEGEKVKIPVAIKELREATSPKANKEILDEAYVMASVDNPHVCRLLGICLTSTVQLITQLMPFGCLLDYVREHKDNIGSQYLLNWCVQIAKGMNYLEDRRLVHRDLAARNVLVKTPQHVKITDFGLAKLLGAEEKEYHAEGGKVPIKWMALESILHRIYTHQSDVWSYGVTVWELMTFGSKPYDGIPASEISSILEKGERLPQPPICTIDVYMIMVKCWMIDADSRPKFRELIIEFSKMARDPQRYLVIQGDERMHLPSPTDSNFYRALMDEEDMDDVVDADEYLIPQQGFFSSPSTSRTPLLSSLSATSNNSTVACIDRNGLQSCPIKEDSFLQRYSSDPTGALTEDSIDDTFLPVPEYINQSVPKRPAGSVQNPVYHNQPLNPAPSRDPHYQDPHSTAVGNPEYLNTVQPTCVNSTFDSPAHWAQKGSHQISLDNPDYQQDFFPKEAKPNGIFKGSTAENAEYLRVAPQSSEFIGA

IC50 (MDA-MB-231 [1])	IC50 (T47D)	IC50 (A549)	IC50 (HT-29)	IC50 (MCF7)	IC50 [4]	SMILES	Activity [2]	Activity (HBL-100 [3])	Activity (HBL-100 [5])	Activity (MDA-MB-231 [6])	Activity (MDA-MB-231 [7])
4.27 µM	7.23 µM	2.96 µM	7.23 µM	14.7 µM	–	COc1ccc(/C=N/c2c(C#N)ncn2-c2ccc(F)cc2)cc1OC	Toxic	–	–	–	–
10.5 µM	8.2 µM	9.13 µM	13.8 µM	11.1 µM	–	COc1ccc(/C=N/c2c(C#N)ncn2Cc2ccc(F)cc2)cc1OC	–	–	–	–	–
12.3 µM	16.3 µM	9.28 µM	16.3 µM	7.09 µM	–	COc1ccc(OC)c(/C=N/c2c(C#N)ncn2-c2ccc(F)cc2)c1	–	–	–	–	–
18.7 µM	13.7 µM	9.88 µM	13.7 µM	8.32 µM	–	COc1cc(/C=N/c2c(C#N)ncn2-c2ccc(F)cc2)cc(OC)c1OC	–	–	–	–	–
21.4 µM	19.9 µM	> 25 µM	19.9 µM	7.85 µM	–	COc1ccc(/C=N/c2c(C#N)ncn2-c2ccc(F)cc2)cc1O	–	–	–	–	–
17.2 µM	15.3 µM	17.2 µM	15.3 µM	9.99 µM	–	N#Cc1ncn(-c2ccc(F)cc2)c1/N=C/c1cc([N+](=O)[O-])ccc1O	–	–	–	–	–
17.6 µM	22.4 µM	13.1 µM	22.4 µM	10.9 µM	–	COc1ccc(OC)c(/C=N/c2c(C#N)ncn2Cc2ccc(F)cc2)c1	–	–	–	–	–
13.6 µM	20.1 µM	13.6 µM	20.1 µM	9.99 µM	–	COc1cc(/C=N/c2c(C#N)ncn2-c2ccc(F)cc2)ccc1O	–	–	–	–	–
17.1 µM	19.4 µM	17.1 µM	19.4 µM	9.33 µM	–	COc1ccc(/C=N/c2c(C#N)ncn2-c2ccc(F)cc2)cc1	–	–	–	–	–

The next lines start with the compound.

SMILES	IC50 (MDA-MB-231 [1])	IC50 (T47D)	IC50 (A549)	IC50 (HT-29)	IC50 (MCF7)	IC50 [4]	Activity [2]	Activity (HBL-100 [3])	Activity (HBL-100 [5])	Activity (MDA-MB-231 [6])	Activity (MDA-MB-231 [7])
N#Cc1ncn(-c2ccc(F)cc2)c1/N=C/c1ccc([N+](=O)[O-])cc1	13.4 µM	15.9 µM	18.1 µM	15.9 µM	9.1 µM	–	–	–	–	–	–
N#Cc1ncn(Cc2ccc(F)cc2)c1/N=C/c1ccc([N+](=O)[O-])cc1	3.44 µM	5.72 µM	2.02 µM	5.72 µM	10.6 µM	–	Toxic	–	–	–	–
COc1cc(/C=N/c2c(C#N)ncn2Cc2ccc(F)cc2)cc(OC)c1OC	2.87 µM	17.5 µM	9.71 µM	16.5 µM	9.04 µM	–	Toxic	–	–	–	–
COc1ccc(C2N=C(C(N)=O)c3ncn(-c4ccc(F)cc4)c3N2)cc1OC (centres undefined)	6.76 µM	9.96 µM	2.29 µM	3.29 µM	5.71 µM	0.617 µM	Non-Toxic	Non-Toxic	Non-Toxic	–	–
COc1ccc(/C=N/c2c(C#N)ncn2Cc2ccc(F)cc2)c(OC)c1OC	> 25 µM	> 25 µM	24.3 µM	> 25 µM	12.6 µM	–	–	–	–	–	–
COc1ccc(/C=N/c2c(C#N)ncn2Cc2ccc(F)cc2)cc1O	2.67 µM	6.14 µM	1.32 µM	6.14 µM	4.53 µM	–	Non-Toxic	Toxic	–	–	–
CC(C)c1ccc(/C=N/c2c(C#N)ncn2-c2ccc(F)cc2)cc1	20.4 µM	> 25 µM	14.7 µM	> 25 µM	9.87 µM	–	–	–	–	–	–
COc1ccc(/C=N/c2c(C#N)ncn2Cc2ccc(F)cc2)cc1	2.87 µM	9.19 µM	4.62 µM	9.19 µM	3.87 µM	–	Non-Toxic	Toxic	–	–	–
COc1ccc(C2N=C(C(N)=O)c3ncn(-c4ccc(N5CCN(C)CC5)c([N+](=O)[O-])c4)c3N2)cc1OC (centres undefined)	–	–	–	–	–	–	–	–	–	Active	Active
COc1cc(C2N=C(C(N)=O)c3ncn(-c4ccc(F)cc4)c3N2)cc(OC)c1OC (centres undefined)	8.67 µM	10.7 µM	2.29 µM	2.37 µM	7.46 µM	–	Toxic	–	–	–	–
COc1cc(/C=N/c2c(C#N)ncn2Cc2ccc(F)cc2)ccc1O	16.1 µM	21.5 µM	10.9 µM	21.5 µM	11.3 µM	–	–	–	–	–	–
N#Cc1ncn(-c2ccc(F)cc2)c1/N=C/c1ccc(O)cc1	16.3 µM	20.4 µM	16.3 µM	20.4 µM	11.5 µM	–	–	–	–	–	–
